Source: PMC9495829, “Quercetin Is a Novel Inhibitor of the Choline Kinase of Streptococcus pneumoniae” (Antibiotics, 2022)
pIC50: −log10 of the molar value.

Target: T1, choline kinase of Streptococcus pneumoniae (sChoK) (Streptococcus pneumoniae, UniProt Q8DPI4)
T1 construct: gene pck
Assay: colorimetric choline kinase assay (IC50); PK/LDH kinetics on purified recombinant sChoK (Ki […] +/- […], unit inferred)
Format: biochemical

T1 sequence (Q8DPI4 entry or part of it): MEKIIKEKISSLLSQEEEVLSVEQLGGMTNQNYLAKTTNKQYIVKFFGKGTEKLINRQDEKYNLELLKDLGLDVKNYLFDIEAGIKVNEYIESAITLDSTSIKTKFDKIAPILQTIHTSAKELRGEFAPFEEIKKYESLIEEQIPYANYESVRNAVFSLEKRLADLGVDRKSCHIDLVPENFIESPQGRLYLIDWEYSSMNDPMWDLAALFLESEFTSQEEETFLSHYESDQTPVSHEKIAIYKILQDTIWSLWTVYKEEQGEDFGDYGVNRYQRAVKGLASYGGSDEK

O=c1c(O)c(-c2ccc(O)c(O)c2)oc2cc(O)cc(O)c12 [quercetin]
pIC50: 5.21
